Active and inactive are the calls of the source. The calls are words filed in the database; no cut-off is given here.
How the values were obtained:
[1] = biological target: T1, Tyrosine-protein phosphatase non-receptor type 1 (Homo sapiens, UniProt P18031); experiment: Inhibition of PTP1B (unknown origin)
T1 sequence (P18031 whole entry): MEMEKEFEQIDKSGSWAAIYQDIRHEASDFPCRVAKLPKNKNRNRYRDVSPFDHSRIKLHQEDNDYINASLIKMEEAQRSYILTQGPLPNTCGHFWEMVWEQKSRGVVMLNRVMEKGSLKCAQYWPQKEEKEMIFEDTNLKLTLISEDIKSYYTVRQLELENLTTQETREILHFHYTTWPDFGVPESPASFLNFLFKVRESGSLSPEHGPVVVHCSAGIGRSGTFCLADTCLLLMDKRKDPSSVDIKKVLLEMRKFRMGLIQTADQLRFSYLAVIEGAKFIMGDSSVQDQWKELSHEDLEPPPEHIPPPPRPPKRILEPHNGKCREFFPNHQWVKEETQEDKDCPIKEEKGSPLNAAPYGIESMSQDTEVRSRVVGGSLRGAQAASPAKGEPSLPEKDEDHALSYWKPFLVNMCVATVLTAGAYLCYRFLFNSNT

[2] = biological target: T2, Tyrosine-protein phosphatase non-receptor type 1 (Homo sapiens) (UniProt P18031); experiment: Inhibition of PTP1B (unknown origin) at 20.7 uM
T2 sequence (whole entry): T1 sequence (P18031 whole entry)

[3] = biological target: T2, Tyrosine-protein phosphatase non-receptor type 1 (Homo sapiens); conditions: 23.1 uM
Description: Inhibition of PTP1B (unknown origin) at 23.1 uM

SMILES	IC50 [1]	further results
CC(=O)O[C@@H]1c2c3c(cc(O)c2C(=O)O[C@@H]1C)O[C@@]1(C)[C@@H](O)C[C@H]2C(C)(C)C(=O)C=C[C@]2(C)[C@@H]1C3	–	inhibition [2]: inactive
C[C@H]1OC(=O)c2c(O)cc3c(c2[C@H]1O)C[C@H]1[C@@]2(C)C=CC(=O)C(C)(C)[C@@H]2C[C@H](O)[C@]1(C)O3	8.5 µM	–
C/C(=C\Cc1c(O)cc(O)c2c1C[C@@H](C)OC2=O)CC/C=C(\C)CCC(O)C(C)(C)O (stereo not given in full)	–	inhibition [3]: 40%

Now from value to molecule, other results behind:

IC50 [1]	SMILES	further results
14.9 µM	C[C@@H]1Cc2c3c(cc(O)c2C(=O)O1)O[C@@]1(C)[C@@H](O)C[C@H]2C(C)(C)C(=O)CC[C@]2(C)[C@@H]1C3	–
8.4 µM	C[C@@H]1Cc2c3c(cc(O)c2C(=O)O1)O[C@@]1(C)CC[C@H]2C(C)(C)C(=O)C=C[C@]2(C)[C@@H]1C3	–
